Source: ChEMBL document CHEMBL1135579, “Serine-threonine protein phosphatase inhibitors: development of potential therapeutic strategies” (J Med Chem, 2002)
pIC50: −log10 of the molar value.

Key:
[1] = Inhibition of growth after 72 hr continuous exposure to test compounds in colon HT-29 tumor cell lines; format: functional; conditions: Homo sapiens, HT-29, 72 h
[2] = Inhibition of growth after 72 hr continuous exposure to test compounds in Ovarian ADDP tumor cell lines; format: functional
[3] = Inhibition of growth after 72 hr continuous exposure to test compounds in Osteosarcoma 143B tumor cell lines; format: functional; conditions: Homo sapiens
[4] = Inhibition of growth after 72 hr continuous exposure to test compounds in Ovarian A2780 tumor cell lines; format: functional; conditions: A2780, 72 h
[5] = Inhibition of growth after 72 hr continuous exposure to test compounds in Colon HCT 116 tumor cell lines; format: functional; conditions: Homo sapiens, HCT-116, 72 h
[6] = system: Jurkat; assay: Inhibition of production of beta-galactosidase IL-2 RGA in Jurkat cells; format: functional, cell-based; conditions: Homo sapiens
[7] = system: Jurkat; assay: Inhibition of production of beta-galactosidase thymidine kinase RGA in Jurkat cells; format: functional, cell-based; conditions: Homo sapiens
[8] = Exogenous inhibition concentration of Serine/threonine protein phosphatase 2A (PP2A)
[9] = Exogenous inhibition of Serine/threonine protein phosphatase 1 (PP1); set-up: species or system Homo sapiens
[10] = Exogenous inhibition concentration of Serine/threonine protein phosphatase 2B (PP2B)
[11] = system: HCT-8; assay: Reduction of tumor cell growth to 50% in Fostriecin analogues in HCT-8 colon cancer cell lines; format: functional; conditions: Homo sapiens
[12] = system: L1210; assay: Reduction of tumor cell growth to 50% in Fostriecin analogues in L1210 Leukemia cell lines; format: functional; conditions: Mus musculus
[13] = Exogenous inhibition concentration of Serine/threonine protein phosphatase 2C (PP2C); NI means no inhibition.

SMILES	GI50 [1]	GI50 [2]	GI50 [3]	GI50 [4]	GI50 [5]	pIC50 [9]	pIC50 [10]	further results
CCOC1OC(=O)[C@H]2[C@@H]1[C@@H]1CC[C@H]2O1 (stereo not given in full)	26 µM	107 µM	103 µM	100 µM	80 µM			
O=C(O)[C@@H]1[C@H](C(=O)O)[C@H]2CC[C@@H]1O2								pIC50 [6]: < 4.00; pIC50 [7]: 4.38
C[C@]12C(=O)OC(=O)[C@H]1C1CC[C@H]2O1 [PALASONIN]						6.15		pIC50 [8]: 6.92
CC[C@@H](C)[C@H]1NC(=O)[C@H]([C@@H](C)CC)NC(=O)[C@H]([C@@H](C)CC)NC(=O)[C@H]([C@@H](C)CC)NC(=O)[C@@H](Cc2ccccc2)NC(=O)[C@H](Cc2ccccc2)NC(=O)[C@@H]2CCCN2C(=O)[C@@H]2CCCN2C(=O)[C@H](C(C)C)NC1=O							5.30	
C[C@@](O)(/C=C/[C@H]1CC=CC(=O)O1)[C@H](O)C[C@@H](O)\C=C/C=C\C=C\CO								GI50 [11]: 3.7 µM; GI50 [12]: 2.5 µM
C/C=C1/C(=O)C[C@@H](C(=O)O)[C@H](C)C(=O)N[C@@H](C(C)C)C(=O)N[C@@H](/C=C/C(C)=C/[C@H](C)[C@H](Cc2ccccc2)OC)[C@H](C)C(=O)N[C@@H](C(=O)O)CCC(=O)N1C						8.74	2.06	IC50 [13]: no inhibition
CCCOC(=O)C1C(C(=O)O)C2CC[C@H]1O2 (stereo not given in full)	15 µM	315 µM	450 µM	110 µM	75 µM			
CC1(C(=O)O)C2CCC(O2)C1(C)C(=O)O (stereo not given)						6.22		pIC50 [8]: 7.30
C[C@@]12C(=O)OC(=O)[C@]1(C)[C@H]1CC[C@@H]2O1 [CANTHARIDIN]	6.4 µM	11 µM	10 µM	10 µM	9 µM	6.30	< 3.00	
CCCOC1OC(=O)[C@H]2[C@@H]1[C@@H]1CC[C@H]2O1 (stereo not given in full)	41 µM	535 µM	> 1000 µM	375 µM	195 µM			
CC(=O)OC(C)(C)[C@H]1CC[C@](C)([C@@H](O)CC[C@](C)(O)[C@H]2CC[C@H]3O[C@@H]([C@]4(C)CC[C@@H](Br)C(C)(C)O4)CC[C@]3(C)O2)O1						< 3.00	< 2.00	pIC50 [8]: 5.40
C=CC[C@@H]1/C=C(\C)C[C@H](C)C[C@H](OC)[C@H]2O[C@@](O)(C(=O)C(=O)N3CCCC[C@H]3C(=O)O[C@H](/C(C)=C/[C@@H]3CC[C@@H](O)[C@H](OC)C3)[C@H](C)[C@@H](O)CC1=O)[C@H](C)C[C@@H]2OC [TACROLIMUS ANHYDROUS]							9.30	
COC(=O)C1C(C(=O)O)C2CC[C@H]1O2 (stereo not given in full)	105 µM	180 µM	118 µM	100 µM	76 µM			
Cn1cc2c3c1C(=O)C1=C(C3=NCC2)C2(C=C(Br)C(=O)C(Br)=C2)CCN1 [DISCORHABDIN]							5.94	
O=C1OC(=O)C2C3CCC(O3)C12 (stereo not given)	33 µM	47 µM	43 µM	50 µM	24 µM			pIC50 [6]: < 4.66; pIC50 [7]: 4.00
C/C=C/C=C\C=C/[C@H](O)C[C@@H](OP(=O)(O)O)[C@](C)(O)/C=C/[C@H]1CC=CC(=O)O1								GI50 [11]: 1.5 µM; GI50 [12]: 0.22 µM
C[C@@](O)(/C=C/[C@H]1CC=CC(=O)O1)[C@@H](C[C@@H](O)\C=C/C=C\C=C\CO)OP(=O)(O)O [FOSTRIECIN]						3.88		GI50 [11]: 2.3 µM; GI50 [12]: 0.21 µM
C[C@@](O)(/C=C/[C@@H]1OC(=O)C=CC1O)[C@@H](C[C@@H](O)\C=C/C=C\C=C\CO)OP(=O)(O)O (stereo not given in full)								GI50 [11]: 4.2 µM; GI50 [12]: 0.83 µM
C[C@@](O)(/C=C/COC(=O)/C=C\CO)[C@@H](C[C@@H](O)\C=C/C=C\C=C\CO)OP(=O)(O)O								GI50 [11]: 56 µM; GI50 [12]: > 1 µM
